Reference: patent US9776991B2, “Thienomethylpiperazine derivatives as inhibitors of soluble epoxide hydrolase” (SANOFI, priority 2013, dated 2017)
pIC50: −log10 of the molar value. Counter-ions that a name gives are not always drawn.

Molecular target: recombinant sEH (soluble epoxide hydrolase, EPHX2) (Homo sapiens (Human), UniProt P34913)
Experiment: biochemical fluorometric sEH inhibition assay with Phome substrate
Details: recombinant sEH purified from Sf9 insect cells, 2 nM sEH, 5 μM Phome, 60 minutes at 30° C.
Experimental: Compounds were tested in a biochemical screening assay using recombinant sEH purified from Sf9 insect cells and an artificial substrate, (3-phenyl-oxiranyl)-acetic acid cyano-(6-methoxy-naphtalen-2-yl)-methyl ester, Phome. The biochemical assay was performed in analogy to a fluorometric described in the literature (P. D. Jones et al., Anal. Biochem. 2005, 343, 66-75). The assay principle bases on the sEH-catalyzed hydrolysis of an artificial α-cyano-ester substrate. O-deacetylation liberates a cyanohydrin intermediate that rapidly decomposes to the highly fluorescent 6-methoxy-2-naphtaldehyde. To discriminate sample autofluorescence, the assay was carried out as a kinetic measurement with two time points. The first measurement is performed immediately before addition of the substrate and the […] measurement is done after completion of the assay. The assay format is either in 96- or in 384-well format.
Details of the assay using a 96-well plate format are described below. 40 μl recombinant sEH enzyme and 5 μl test compound are pre-incubated for 15 minutes at 30° C. Following pre-incubation, the reaction is started by addition of 5 μl Phome. The assay mixture containing 2 nM final sEH concentration, test compound ranging in a concentration from 0.0001-10 μM and 5 μM Phome is incubated for 60 minutes at 30° C.
Fluorescence is measured with any suitable detector for instance a TECAN Safire or Tecan Ultra at […]. % inhibition of recombinant sEH activity is used for calculation of corresponding IC50 values as illustrated and described in the examples.
The NCBI gene bank reference sequence with the accession number NM_001979 for EPHX2/sEH was applied for recombinant protein production:
The following commercially available materials have been used: • Incubation reagent: 25 mM Hepes (Sigma-Aldrich, Cat. No H-3375), 0.01% bovine albumin (Sigma-Aldrich Cat. No PA9205) • Substrate: 3-Phenyl-oxiranyl)-acetic acid cyano-(6-methoxy-naphtalen-2-yl)-methyl ester, Phome (Biozol Cat. No 10003134) • Microtiter plates: 96-well plates (Greiner Cat. No 655180; Costar Cat. No 3915)

Chain of recombinant sEH (soluble epoxide hydrolase, EPHX2) (P34913 whole entry): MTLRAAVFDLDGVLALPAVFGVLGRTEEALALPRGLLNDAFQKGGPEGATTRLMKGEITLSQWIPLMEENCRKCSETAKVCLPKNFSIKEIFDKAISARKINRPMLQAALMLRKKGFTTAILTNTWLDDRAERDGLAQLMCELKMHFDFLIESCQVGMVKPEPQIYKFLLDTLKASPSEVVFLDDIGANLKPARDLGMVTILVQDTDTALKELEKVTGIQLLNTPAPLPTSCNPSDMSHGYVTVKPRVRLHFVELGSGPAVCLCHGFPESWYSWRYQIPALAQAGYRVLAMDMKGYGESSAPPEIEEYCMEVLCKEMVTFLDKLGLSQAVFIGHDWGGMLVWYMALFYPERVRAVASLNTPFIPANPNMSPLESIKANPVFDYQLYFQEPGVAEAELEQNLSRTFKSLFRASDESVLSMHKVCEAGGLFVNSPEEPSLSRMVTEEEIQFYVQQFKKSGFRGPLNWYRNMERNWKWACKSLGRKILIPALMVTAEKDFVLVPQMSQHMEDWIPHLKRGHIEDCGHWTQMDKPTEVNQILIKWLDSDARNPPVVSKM

Row | SMILES | pIC50 | pIC50 (trifluoroacetate)
1 | C[C@@H](O)C(=O)N1CCN(Cc2ccc(C(=O)N(Cc3ccccc3)OC(F)(F)F)s2)CC1 [Example 1] | 9.91 | –
2 | O=C(NCc1ccccc1C(F)(F)F)c1ccc(CN2CCN(C(=O)Cc3ccccc3Cl)CC2)s1 [Example 3] | 9.39 | –
3 | O=C(NCc1ccccc1C(F)(F)F)c1ccc(CN2CCN(C(=O)C3Cc4ccccc43)CC2)s1 (centres unmarked) [Example 6] | 9.28 | –
4 | COc1ncccc1C(=O)N1CCN(Cc2ccc(C(=O)NCc3ccc(Cl)cc3Cl)s2)CC1 [Example 7] | 9.28 | –
5 | O=C(NCc1ccc(Cl)cc1Cl)c1ccc(CN2CCN(C(=O)c3cnn4ccccc34)CC2)s1 [Example 8] | 9.29 | –
6 | COc1ccc(CNC(=O)c2ccc(CN3CCN(C(=O)c4c(C)cc(=O)oc4C)CC3)s2)c(C(F)(F)F)c1 [Example 9] | 8.51 | –
7 | CNC(=O)c1cccnc1N1CCN(Cc2ccc(C(=O)NCc3ccc(Cl)cc3Cl)s2)CC1 [Example 14] | 8.53 | –
8 | O=C(NCc1ccccc1C(F)(F)F)c1ccc(CN2CCN(C(=O)COc3ccccc3)CC2)s1 [Example 17] | 9.16 | –
9 | O=C(NCc1ccccc1C(F)(F)F)c1ccc(CN2CCN(C(=O)c3cscc3Br)CC2)s1 [Example 18] | 9.17 | –
10 | O=C(NCc1ccccc1OC(F)(F)F)c1ccc(CN2CCN(C(=O)N3CCCC3)CC2)s1 [Example 19] | 9.16 | –
11 | COCc1cc(O)nc(N2CCN(Cc3ccc(C(=O)NCc4ccc(Cl)cc4Cl)s3)CC2)n1 [Example 21] | 8.54 | –
12 | COc1ccc(CNC(=O)c2ccc(CN3CCN(c4ccc(O)nn4)CC3)s2)c(OC(F)(F)F)c1 [Example 22] | 8.55 | –
13 | Cc1cc(=O)oc(C)c1C(=O)N1CCN(Cc2ccc(C(=O)NCC3CCc4ccccc43)s2)CC1 (centres unmarked) [Example 23] | 8.56 | –
14 | Cc1cnc(C)c(N2CCN(Cc3ccc(C(=O)NCc4ccccc4OC(F)(F)F)s3)CC2)n1 [Example 26] | 8.56 | –
15 | O=C(NCc1ccc(Cl)cc1Cl)c1ccc(CN2CCN(C3CCC3)CC2)s1 [Example 27] | 9.10 | –
16 | Cc1cc(C(=O)NCCC(C)(C)C)sc1CN1CCN(C(=O)c2c(C)cc(=O)oc2C)CC1 [Example 28] | 9.10 | –

Row | SMILES | pIC50 | pIC50 (trifluoroacetate)
17 | Cc1cc(C(=O)NCc2cccc3c2OCCO3)sc1CN1CCN(C(=O)c2c(C)cc(=O)oc2C)CC1 [Example 29] | 9.10 | –
18 | O=C(NCc1ccccc1C(F)(F)F)c1ccc(CN2CCN(C(=O)Cc3cccc(C(F)(F)F)c3)CC2)s1 [Example 31] | 9.12 | –
19 | Cc1cc(=O)oc(C)c1C(=O)N1CCN(Cc2ccc(C(=O)NCc3ccccc3OC(F)(F)F)s2)CC1 [Example 35] | 9.04 | –
20 | O=C(NCc1ccccc1OC(F)(F)F)c1ccc(CN2CCN(C(=O)C3(O)CC3)CC2)s1 [Example 37] | 9.03 | –
21 | O=C(NCc1ccccc1OC(F)(F)F)c1ccc(CN2CCN(C3CCCC3)C(=O)C2)s1 [Example 38] | 9.10 | –
22 | Cc1cncc(N2CCN(Cc3ccc(C(=O)NCc4ccccc4OC(F)(F)F)s3)CC2)n1 [Example 39] | 8.56 | –
23 | O=C(NCc1ccc(Cl)cc1Cl)c1ccc(CN2CCN(C(=O)COc3ccccc3)CC2)s1 [Example 42] | 8.57 | –
24 | O=C(NCc1ccc(Cl)cc1Cl)c1ccc(CN2CCN(C(=O)c3ccc(F)cc3Cl)CC2)s1 [Example 43] | 8.56 | –
25 | CN1CC(C(=O)N2CCN(Cc3ccc(C(=O)NCc4ccccc4OC(F)(F)F)s3)CC2)CC1=O (centres unmarked) [Example 44] | 8.57 | –
26 | O=C(NCc1ccccc1C(F)(F)F)c1ccc(CN2CCN(C(=O)c3nccc4ccccc34)CC2)s1 [Example 45] | 8.57 | –
27 | O=C(NCc1ccccc1OC(F)(F)F)c1ccc(CN2CCN(c3nccs3)C(=O)C2)s1 [Example 47] | 8.57 | –
28 | O=C(NCc1ccccc1OC(F)(F)F)c1ccc(CN2CCN(C(=O)C3COCCN3)CC2)s1 (centres unmarked) [Example 49] | 8.57 | –
29 | O=C(NCc1ccc(Cl)cc1Cl)c1ccc(CN2CCN(c3ccc(O)nn3)CC2)s1 [Example 50] | 8.57 | –
30 | CCOc1ccccc1C(=O)N1CCN(Cc2ccc(C(=O)NCc3ccccc3C(F)(F)F)s2)CC1 [Example 53] | 8.99 | –
31 | CC(O)C(=O)N1CCN(Cc2ccc(C(=O)NCc3ccccc3OC(F)(F)F)s2)CC1 (centres unmarked) [Example 54, 5-[4-(2-Hydroxy-propionyl)-piperazin-1-ylmethyl]-thiophene-2-carboxylic acid 2-trifluoromethoxy-benzylamide, trifluoroacetate] | – | 9.01
32 | O=C(NCc1ccccc1OC(F)(F)F)c1ccc(CN2CCN(C(=O)C3CCOC3)CC2)s1 (centres unmarked) [Example 55] | 8.98 | –

Further lines, with some results ahead:

Row | pIC50 | SMILES | pIC50 (trifluoroacetate)
33 | 9.30 | Cc1noc(C)c1C(=O)N1CCN(Cc2ccc(C(=O)NCc3ccc(Cl)cc3Cl)s2)CC1 [Example 2] | –
34 | 9.77 | O=C(NCc1ccccc1C(F)(F)F)c1ccc(CN2CCN(C(=O)c3cccnc3)CC2)s1 [Example 4] | –
35 | 9.36 | CC(C)CCNC(=O)c1ccc(CN2CCN(C(=O)[C@@H]3C[C@H]3c3ccccc3)CC2)s1 [Example 5] | –
36 | 8.53 | Cc1cc(=O)oc(C)c1C(=O)N1CCN(Cc2ccc(C(=O)NCCC(C)(C)C)s2)CC1 [Example 10] | –
37 | 8.53 | Cc1cc(=O)oc(C)c1C(=O)N1CCN(Cc2ccc(C(=O)NCCCn3nc(C(F)(F)F)cc3C)s2)CC1 [Example 11] | –
38 | 7.60 | Cc1c(C(=O)N2CCN(Cc3ccc(C(=O)NCCC(C)C)s3)CC2)oc2ccc(Br)cc12 [Example 12] | –
39 | 8.53 | CC(C)CCNC(=O)c1ccc(CN2CCN(C(=O)c3ccnn3C(F)F)CC2)s1 [Example 13] | –
40 | 9.22 | O=C(NCc1ccccc1C(F)(F)F)c1ccc(CN2CCN(C(=O)c3ccc4nccn4c3)CC2)s1 [Example 15] | –
41 | 9.27 | O=C(NCc1ccccc1C(F)(F)F)c1ccc(CN2CCN(C(=O)c3ccccn3)CC2)s1 [Example 16] | –
42 | 9.27 | CC(O)C(=O)N1CCN(Cc2ccc(C(=O)NCc3ccc(Cl)cc3Cl)s2)CC1 (centres unmarked) [Example 20] | –
43 | 8.56 | Cn1nc(C(C)(C)C)cc1C(=O)N1CCN(Cc2ccc(C(=O)NCc3ccccc3C(F)(F)F)s2)CC1 [Example 25] | –
44 | 9.10 | COc1cc(CNC(=O)c2ccc(CN3CCN(C(=O)[C@H](O)C(C)C)CC3)s2)ccn1 [Example 30, 5-[4-((R)-2-Hydroxy-3-methyl-butyryl)-piperazin-1-ylmethyl]-thiophene-2-carboxylic acid (2-methoxy-pyridin-4-ylmethyl)-amide] | –
45 | 9.12 | COc1ccc(CNC(=O)c2ccc(CN3CCN(C(=O)C(C)O)CC3)s2)c(OC(F)(F)F)c1 (centres unmarked) [Example 32] | –
46 | 9.04 | Cc1cc(=O)oc(C)c1C(=O)N1CCN(Cc2ccc(C(=O)NCc3ccc(C(F)(F)F)cc3)s2)CC1 [Example 33] | –
47 | 9.04 | COc1cc(CNC(=O)c2ccc(CN3CCN(C(=O)c4c(C)cc(=O)oc4C)CC3)s2)ccn1 [Example 34] | –
48 | 9.04 | Cc1cc(=O)oc(C)c1C(=O)N1CCN(Cc2ccc(C(=O)NCc3ccccc3C(F)(F)F)s2)CC1 [Example 36] | –
49 | 8.56 | COc1cc(CNC(=O)c2ccc(CN3CCN(C(=O)C4CC(=O)OC4(C)C)CC3)s2)ccn1 (centres unmarked) [Example 40] | –
50 | 8.56 | CN[C@H](C(=O)N1CCN(Cc2ccc(C(=O)NCc3ccccc3OC(F)(F)F)s2)CC1)[C@@H](C)O [Example 41] | –
51 | 8.57 | NC(CF)C(=O)N1CCN(Cc2ccc(C(=O)NCc3ccc(Cl)cc3Cl)s2)CC1 (centres unmarked) [Example 48] | –
52 | 9.00 | Cn1cccc1C(=O)N1CCN(Cc2ccc(C(=O)NCc3ccccc3C(F)(F)F)s2)CC1 [Example 51] | –
53 | 9.02 | Cn1ncc(Br)c1C(=O)N1CCN(Cc2ccc(C(=O)NCc3ccccc3C(F)(F)F)s2)CC1 [Example 52] | –
